For one experiment, the target named is T1, hα2C receptor (Homo sapiens, UniProt P18825).
T1 construct: expressed in transfected cells; host or cells: CHO cells, stably transfected; membrane preparation
T1 sequence (P18825 1-462): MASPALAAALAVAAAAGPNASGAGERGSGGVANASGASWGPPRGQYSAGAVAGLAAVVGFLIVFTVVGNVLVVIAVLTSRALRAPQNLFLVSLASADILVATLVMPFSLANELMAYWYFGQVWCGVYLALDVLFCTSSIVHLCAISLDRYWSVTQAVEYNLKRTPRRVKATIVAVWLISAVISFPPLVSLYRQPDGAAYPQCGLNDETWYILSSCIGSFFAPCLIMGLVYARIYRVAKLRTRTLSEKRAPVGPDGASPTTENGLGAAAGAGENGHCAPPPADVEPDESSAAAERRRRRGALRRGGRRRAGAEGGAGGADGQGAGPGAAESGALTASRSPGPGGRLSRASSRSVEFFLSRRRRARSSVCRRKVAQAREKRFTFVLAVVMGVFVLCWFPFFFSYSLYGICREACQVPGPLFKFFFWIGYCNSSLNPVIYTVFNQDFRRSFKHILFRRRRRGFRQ
The experiment can be described thus: Radioligand binding experiment for α2C-adrenoceptor ([3H]raulwolscine, CHO cell membranes). The settings on record: [3H]raulwolscine binding; for IC50: read-out: h-α2C pIC50 (converted).

The next experiment concerns the target T2, 5HT-Transporter (Homo sapiens, UniProt P31645).
T2 construct: Human platelet membranes (Oceanix Biosciences Corporation, Hanover, Md., USA) were thawed; tissue Oceanix Biosciences Corporation, Hanover, Md., USA; host or cells: human platelet membranes
The experiment can be described thus: Binding experiment for the 5HT-transporter ([3H]paroxetine, human platelet membranes). To be noted: [3H]paroxetine 0.5 nM; for IC50: read-out: h-5HTT pIC50 (converted). The gist of the method:
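Filter-bound radioactivity from human platelet membranes incubated with [3H]paroxetine and test compound (buffer Tris-HCl 50 mM, 120 mM NaCl, 5 mM KCl) was counted.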

The target of a further experiment is T3, hα2A receptor (Homo sapiens, UniProt P08913).
T3 construct: expressed in transfected cells; host or cells: CHO cells, stably transfected; membrane preparation
T3 sequence (P08913 1-465): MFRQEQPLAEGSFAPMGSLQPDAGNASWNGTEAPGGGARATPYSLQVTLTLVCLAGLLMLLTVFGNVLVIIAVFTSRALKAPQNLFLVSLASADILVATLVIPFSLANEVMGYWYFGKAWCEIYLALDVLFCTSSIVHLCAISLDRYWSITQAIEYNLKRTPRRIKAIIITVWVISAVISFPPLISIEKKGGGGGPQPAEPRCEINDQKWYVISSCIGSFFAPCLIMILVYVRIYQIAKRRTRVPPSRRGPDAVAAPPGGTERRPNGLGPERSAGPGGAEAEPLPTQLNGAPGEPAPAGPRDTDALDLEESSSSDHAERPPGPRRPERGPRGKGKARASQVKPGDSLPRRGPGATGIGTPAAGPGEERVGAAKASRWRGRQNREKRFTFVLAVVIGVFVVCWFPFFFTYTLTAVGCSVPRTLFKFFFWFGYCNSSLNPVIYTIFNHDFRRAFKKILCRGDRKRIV
The experiment can be described thus: Radioligand binding experiment for α2A-adrenoceptor ([3H]raulwolscine, CHO cell membranes). The settings on record: [3H]raulwolscine binding; for IC50: read-out: h-α2A pIC50 (converted).

Where only a bound is given, the exact number is not on record here.

T2 sequence (P31645 whole entry): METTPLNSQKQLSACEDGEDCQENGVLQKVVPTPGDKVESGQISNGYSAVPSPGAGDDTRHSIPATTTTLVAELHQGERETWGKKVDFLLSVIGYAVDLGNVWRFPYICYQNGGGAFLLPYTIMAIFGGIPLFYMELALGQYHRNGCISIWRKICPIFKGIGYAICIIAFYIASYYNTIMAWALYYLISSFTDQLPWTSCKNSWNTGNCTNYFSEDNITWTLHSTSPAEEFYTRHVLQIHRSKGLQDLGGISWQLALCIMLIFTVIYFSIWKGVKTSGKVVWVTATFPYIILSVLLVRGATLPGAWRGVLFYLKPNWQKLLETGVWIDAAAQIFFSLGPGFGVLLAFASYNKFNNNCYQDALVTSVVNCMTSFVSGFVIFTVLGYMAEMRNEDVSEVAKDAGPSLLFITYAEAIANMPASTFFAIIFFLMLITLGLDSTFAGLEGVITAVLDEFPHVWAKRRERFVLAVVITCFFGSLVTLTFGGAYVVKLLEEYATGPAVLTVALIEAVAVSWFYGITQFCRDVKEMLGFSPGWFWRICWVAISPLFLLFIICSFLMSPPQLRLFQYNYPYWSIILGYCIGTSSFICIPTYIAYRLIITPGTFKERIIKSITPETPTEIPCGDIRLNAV

In the case of `COC(=O)CCNCc1ccc(-n2ccnc(NC3CCN(C/C(C)=C/c4ccccc4)CC3)c2=O)cc1` [1-96], the “h-α2C pIC50” value at hα2C receptor was 8.6. In addition, the “h-5HTT pIC50” value on 5HT-Transporter worked out at 6.0. Moreover, on hα2A receptor, the “h-α2A pIC50” value came out at 7.1.
For `CC(=O)NCCNC(=O)Cn1ccnc(NC2CCN(C/C(C)=C/c3ccccc3)CC2)c1=O` [1-114], the IC50 is 12.6 nM on hα2C receptor, 3980 nM at 5HT-Transporter and 200 nM at hα2A receptor.
With `CNCc1ccc(Cn2ccnc(NC3CCN(C/C(C)=C/c4ccccc4)CC3)c2=O)cc1` [1-9], the IC50 is 3.98 nM at hα2C receptor, 1580 nM on 5HT-Transporter and 31.6 nM on hα2A receptor.
In the case of `C/C(=C\c1ccccc1)CN1CCC(Nc2nccn(CCCN(C)Cc3ccccc3)c2=O)CC1` [1-51], the IC50 was 1 nM on hα2C receptor, 1000 nM at 5HT-Transporter and 50.1 nM on hα2A receptor.
On to `C/C(=C\c1ccccc1)CN1CCC(Nc2nccn(CCCN(C(=O)Cc3ccccc3)c3ccccc3)c2=O)CC1` [1-88], for which the IC50 on hα2C receptor was 12.6 nM; at 5HT-Transporter it was 631 nM; on hα2A receptor it was 126 nM.
Taken in the same sequence, the figures for `CC(=O)Nc1ccc(S(=O)(=O)NCc2ccc(Cn3ccnc(NC4CCN(C/C(C)=C/c5ccccc5)CC4)c3=O)cc2)cc1` [1-164] were 20 nM, 501 nM and 158 nM.
Consider `C/C(=C\c1ccccc1)CN1CCC(Nc2nc(Cl)c(-c3cccc(Br)c3)[nH]c2=O)CC1` [17-1], for which the IC50 is 200 nM on hα2C receptor, 316 nM on 5HT-Transporter and 1000 nM at hα2A receptor.
Regarding `C/C(=C\c1ccccc1)CN1CCC(Nc2nccn(Cc3ccc(-c4ccccc4)cc3)c2=O)CC1` [5-32], the IC50 on hα2C receptor was 126 nM; at 5HT-Transporter it was 316 nM; on hα2A receptor, 316 nM.
With `C/C(=C\c1ccccc1)CN1CCC(Nc2nccn(CCCN(Cc3ccccc3)C(=O)Cc3ccccc3)c2=O)CC1` [1-89], the IC50 was 12.6 nM on hα2C receptor, 794 nM at 5HT-Transporter and 200 nM on hα2A receptor.
`CCCn1ccnc(N2CCN(C/C(C)=C/c3ccccc3)CC2)c1=O` [14-2]: the IC50 is 50.1 nM at hα2C receptor, 6310 nM on 5HT-Transporter and 126 nM at hα2A receptor.
Turning to `C/C(=C\c1ccccc1)CN1CCC(Nc2nccn(CCCN(C)C(=O)c3ccccc3)c2=O)CC1` [1-74], the results for the IC50 at hα2C receptor, at 5HT-Transporter and on hα2A receptor were 10 nM, 3160 nM and 251 nM, respectively.
Take `C#CCN(C)C(=O)Cn1ccnc(NC2CCN(C/C(C)=C/c3ccccc3)CC2)c1=O` [1-28]: the IC50 is 5.01 nM on hα2C receptor, 2510 nM at 5HT-Transporter and 79.4 nM on hα2A receptor.
Regarding `C/C(=C\c1ccccc1)CN1CCC(Nc2nccn(-c3ccc(N4CCCCC4)cc3)c2=O)CC1` [2-8], the IC50 on hα2C receptor was 10 nM; on 5HT-Transporter, 501 nM; on hα2A receptor, 39.8 nM.
For the molecule `C/C(=C\c1ccccc1)CN1CCC(Nc2nccn(CC(=O)N(CCCn3ccnc3)Cc3ccc(F)cc3)c2=O)CC1` [1-143], the IC50 is 3.16 nM at hα2C receptor, 2000 nM at 5HT-Transporter and 79.4 nM on hα2A receptor.
For `C/C(=C\c1ccccc1)CN1CCC(Nc2nccn(Cc3ccccc3-c3ccccc3)c2=O)CC1` [5-31], in that order: 20 nM, 200 nM and 100 nM.
Turning to `CCOC(=O)N1CCC(NCc2cccc(-n3ccnc(NC4CCN(C/C(C)=C/c5ccccc5)CC4)c3=O)c2)CC1` [1-127], the “h-α2C pIC50” value at hα2C receptor was found to be 8.0. The “h-5HTT pIC50” value at 5HT-Transporter worked out at 5.5. Further, the “h-α2A pIC50” value at hα2A receptor is 7.3.
For `C/C(=C\c1ccccc1)CN1CCC(Nc2nccn(CC(=O)N(C)c3ccccc3)c2=O)CC1` [1-41], the IC50 at hα2C receptor was 3.16 nM; at 5HT-Transporter it was 398 nM; on hα2A receptor it was 100 nM.
For `C/C(=C\c1ccccc1)CN1CCC(Nc2nccn(Cc3ccc(CNS(=O)(=O)c4c(C)noc4C)cc3)c2=O)CC1` [1-171], in that order: 20 nM, 794 nM and 158 nM.
`C/C(=C\c1ccccc1)CN1CCN(c2nccn(Cc3ccc4ccccc4c3)c2=O)CC1` [12-7]: the IC50 was 126 nM on hα2C receptor, 1000 nM on 5HT-Transporter and 126 nM at hα2A receptor.
`CCn1ccnc(NC2CCN(C/C(C)=C/c3ccccc3)CC2)c1=O` [7-3]: the IC50 at hα2C receptor was 15.8 nM; on 5HT-Transporter, 3980 nM; on hα2A receptor, 63.1 nM.
Turning to `COc1ccc(-n2ccnc(NC3CCN(C/C(C)=C/c4ccccc4)CC3)c2=O)cc1` [3-9], the IC50 is 7.94 nM on hα2C receptor, 50.1 nM at 5HT-Transporter and 5.01 nM on hα2A receptor.
In the case of `C/C(=C\c1ccccc1)CN1CCC(Nc2nccn(-c3cnc4ccccc4c3)c2=O)CC1` [6-16], the IC50 is 15.8 nM on hα2C receptor, 316 nM at 5HT-Transporter and 63.1 nM on hα2A receptor.
In the case of `C/C(=C\c1ccccc1)CN1CCC(Nc2nccn(CC(=O)N(CCN3CCOCC3)Cc3ccc(F)cc3)c2=O)CC1` [1-151], the IC50 was 2 nM on hα2C receptor, 1260 nM on 5HT-Transporter and 126 nM at hα2A receptor.
For `C/C(=C\c1ccccc1)CN1CCC(Nc2nccn(Cc3cccc4ccccc34)c2=O)CC1` [5-34], in that order: 25.1 nM, 398 nM and 100 nM.
Take `C/C(=C\c1ccccc1)CN1CCN(c2nccn(CCCc3ccccc3)c2=O)CC1` [12-2]: the IC50 on hα2C receptor is 63.1 nM; at 5HT-Transporter, 1260 nM; at hα2A receptor it was 200 nM.
For `C/C(=C\c1ccccc1)CN1CCC(Nc2nccn(C/C=C/CN3C(=O)c4ccccc4C3=O)c2=O)CC1` [2-52], in that order: 2 nM, 31.6 nM and 50.1 nM.
As for `C/C(=C\c1ccccc1)CN1CCC(Nc2nccn(Cc3ccc(CNS(=O)(=O)c4ccc(C(F)(F)F)cc4)cc3)c2=O)CC1` [1-163], the results for the IC50 on hα2C receptor, on 5HT-Transporter and at hα2A receptor were 39.8 nM, 794 nM and 158 nM, respectively.
Consider `CC(C)(C)OC(=O)NCc1ccc(Cn2ccnc(NC3CCN(C/C=C/c4ccccc4)CC3)c2=O)cc1` [16-5], for which the IC50 at hα2C receptor is 398 nM; at 5HT-Transporter, 1260 nM; at hα2A receptor, 794 nM.
For `C/C(=C\c1ccccc1)CN1CCC(Nc2nccn(CCCN(Cc3ccccc3)C(=O)CC3CCCC3)c2=O)CC1` [1-86], in that order: 15.8 nM, 1000 nM and 158 nM.
`C/C(=C\c1ccccc1)CN1CCC(Nc2nccn(CC(=O)N3CCC(C(F)(F)F)CC3)c2=O)CC1` [2-12]: the figures for the IC50 on hα2C receptor, at 5HT-Transporter and on hα2A receptor were 3.98 nM, 2000 nM and 63.1 nM, respectively.
With `COc1ccc(CNC(=O)Cn2ccnc(NC3CCN(C/C(C)=C/c4ccccc4)CC3)c2=O)cc1` [1-64], the IC50 at hα2C receptor is 12.6 nM; at 5HT-Transporter, 1580 nM; on hα2A receptor, 251 nM.
As for `O=c1c(NC2CCN(C/C=C/c3ccccc3)CC2)nccn1CCN1CCCCC1` [16-6], the IC50 was 63.1 nM at hα2C receptor, above 10000 nM at 5HT-Transporter and 794 nM at hα2A receptor.
Regarding `C/C(=C\c1ccccc1)CN1CCC(Nc2nccn(CC(=O)c3ccccc3)c2=O)CC1` [5-29], the results for the IC50 on hα2C receptor, at 5HT-Transporter and at hα2A receptor were 10 nM, 794 nM and 15.8 nM, respectively.
Consider `COC(=O)Cn1ccnc(NC2CCN(C/C=C/c3ccccc3)CC2)c1=O` [16-10], for which the figures for the IC50 on hα2C receptor, on 5HT-Transporter and at hα2A receptor were 200 nM, above 10000 nM and 1000 nM, respectively.

The values above are taken from patent US20090111801A1, “SUBSTITUTED PYRAZINONE DERIVATIVES FOR USE AS A MEDICINE” (Janssen Pharmaceutica N.V., priority 2006, published 2009).
